Results taken from US20050215548A1 (Cyclacel Limited, priority 2002, published 2005).

Molecular target: T1, HDM2 (Homo sapiens, UniProt Q00987)
T1 construct: Recombinant HDM2 (1.5 μg per well) in TBS-BSA buffer
Experiment: Fluorescence polarisation competitive HDM2 binding assay
Conditions: fluorescence polarisation format; Table 1; read-out: IC50 In vitro competitive HDM2 binding assay
Experimental: This was carried out using a 96-well microtiter plate (Costar) format. Recombinant HDM2 (1.5 μg per well) in TBS-BSA buffer (50 mM Tris pH 7.4, 150 mM NaCl, and 0.1% BSA) was incubated for 5 min at room temperature in the presence of serially diluted test compound (in TBS-BSA buffer with a final concentration of 5% DMSO). Fluorescently labelled p53-derived peptide (fluorescein-[…]NH2, 0.2 μM) was added to each well and the plate was incubated at room temperature for 45 min. The fluorescence polarisation (excitation 485 nm, emission 520 nm) of the peptide was measured. IC50 values were calculated from dose-response curves.
The fluorescence polarisation competitive HDM2 binding assay described in Example 3 was used. Furthermore, the anti-proliferative potency of the compounds against three human tumour cell lines with different genetic make-up was also determined. […] The cell lines used were as follows: AGS, gastric adenocarcinoma, wild-type p53; H1299, large cell lung carcinoma, p53 null, low HDM2; SJSA-1, primitive multipotential bone sarcoma, wild-type p53, overexpressed HDM2.

T1 sequence (Q00987 whole entry): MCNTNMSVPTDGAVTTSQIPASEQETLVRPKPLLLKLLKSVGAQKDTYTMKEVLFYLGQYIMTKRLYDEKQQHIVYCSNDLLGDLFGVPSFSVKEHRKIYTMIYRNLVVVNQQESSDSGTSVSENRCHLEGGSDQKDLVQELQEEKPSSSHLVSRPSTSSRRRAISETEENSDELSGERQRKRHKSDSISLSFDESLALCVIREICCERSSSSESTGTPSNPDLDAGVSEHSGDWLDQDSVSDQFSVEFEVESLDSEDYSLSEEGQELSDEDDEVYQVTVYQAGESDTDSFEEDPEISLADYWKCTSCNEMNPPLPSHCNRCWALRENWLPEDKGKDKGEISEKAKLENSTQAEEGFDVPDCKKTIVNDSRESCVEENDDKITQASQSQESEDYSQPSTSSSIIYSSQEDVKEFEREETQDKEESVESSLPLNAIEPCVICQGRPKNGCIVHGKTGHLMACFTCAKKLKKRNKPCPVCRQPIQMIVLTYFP

Point of comparison: `Nc1ccc(S(=O)(=O)Nc2ccc(Cl)cc2)cc1Cl` [Compound 102, 4-Amino-3-chloro-N-(4-chloro-phenyl)-benzenesulfonamide], IC50 467 ± 35 µM. Against it:
- Cc1c(S(=O)(=O)Nc2ccc(Cl)c([N+](=O)[O-])c2)sc2ccc(Cl)cc12 [Compound 88, 5-Chloro-3-methyl-benzo[b]thiophene-2-sulfonic acid (4-chloro-3-nitro-phenyl)-amide] — 2.7-fold lower, 174 ± 11 µM
- COCCNc1sc(S(=O)(=O)Nc2ccc(Cl)cc2)cc1[N+](=O)[O-] [Compound 80, 5-(2-Methoxy-ethylamino)-4-nitro-thiophene-2-sulfonic acid (4-chloro-phenyl)-amide] — 3-fold lower, 154 ± 27 µM
- Cc1[nH]c(C(=O)O)c(C)c1S(=O)(=O)Nc1ccc(Cl)cc1 [Compound 92, 4-(4-Chloro-phenylsulfamoyl)-3,5-dimethyl-1H-pyrrole-2-carboxylic acid] — within 1.5-fold, 418 µM
- O=S(=O)(Nc1cc(C(F)(F)F)cc(C(F)(F)F)c1)c1ccc(Br)s1 [Compound 18, 5-Bromothiophene-2-sulfonic acid (3,5-bis-trifluoromethylphenyl)amide] — 2.7-fold lower, 172 ± 21 µM
- Cn1nc(-c2ccc(S(=O)(=O)N(Cc3cccc(C(F)(F)F)c3)c3cc(C(F)(F)F)cc(C(F)(F)F)c3)s2)cc1C(F)(F)F [Compound 78, 5-(1-Methyl-5-tri-fluoromethyl-1H-pyrazol-3-yl)-thiophene-2-sulfonic acid (3,5-bis-tri-fluoromethyl-phenyl)-(3-trifluoro-methyl-benzyl)-amide] — within 1.5-fold, 315 ± 83 µM
- O=[N+]([O-])c1cccc(S(=O)(=O)Nc2ccc(C(F)(F)F)cc2)c1 [Compound 100, 3-Nitro-N-(4-trifluoromethyl-phenyl)-benzenesulfonamide] — within error, 431 ± 5 µM
- O=S(=O)(Nc1ccc(C(F)(F)F)cc1)c1ccc(-c2ncco2)cc1 [Compound 13, 4-Oxazol-2-yl-N-(4-trifluoromethylphenyl)benzenesulfonamide] — within error, 494 µM
- Cc1[nH]c(C(=O)O)c(C)c1S(=O)(=O)Nc1cc(C(F)(F)F)cc(C(F)(F)F)c1 [Compound 91, 4-(3,5-Bis-trifluoromethyl-phenylsulfamoyl)-3,5-dimethyl-1H-pyrrole-2-carboxylic acid] — within error, 481 µM
- CCc1sc(S(=O)(=O)Nc2ccc(Cl)cc2)cc1[N+](=O)[O-] [Compound 71, 5-Ethyl-4-nitro-thiophene-2-sulfonic acid (4-chloro-phenyl)-amide] — 2-fold lower, 237 ± 35 µM
- O=S(=O)(Nc1cc(Cl)cc(Cl)c1)c1ccc(-c2ncco2)cc1 [Compound 113, N-(3,5-Dichloro-phenyl)-4-oxazol-2-yl-benzenesulfonamide] — 1.9-fold lower, 246 µM
- COc1ccc(S(=O)(=O)Nc2ccc(Cl)cc2)cc1Cl [Compound 103, 3-Chloro-N-(4-chloro-phenyl)-4-methoxy-benzenesulfonamide] — within 1.5-fold, 408 ± 18 µM
- O=S(=O)(Nc1ccc(Cl)cc1)c1ccc2c(c1)OCCO2 [Compound 85, 2,3-Dihydro-benzo[1,4]dioxine-6-sulfonic acid (4-chloro-phenyl)-amide] — within error, 432 ± 7 µM
- O=S(=O)(Nc1cc(Cl)cc(Cl)c1)c1cc(Br)c(Cl)s1 [Compound 115, 4-Bromo-5-chloro-thiophene-2-sulfonic acid (3,5-dichloro-phenyl)-amide] — within 1.5-fold, 431 µM
- Nc1ccc(S(=O)(=O)Nc2cc(C(F)(F)F)cc(C(F)(F)F)c2)cc1Cl [Compound 99, 4-Amino-N-(3,5-bis-trifluoromethyl-phenyl)-3-chloro-benzenesulfonamide] — 1.9-fold lower, 248 ± 29 µM
- O=S(=O)(Nc1ccc(Cl)c(Cl)c1)c1ccc(Cl)s1 [Compound 26, 5-Chlorothiophene-2-sulfonic acid (3,4-dichlorophenyl)amide] — 1.6-fold lower, 295 ± 36 µM
- CC(=O)N1CCN(c2cc(S(=O)(=O)Nc3cc(C(F)(F)F)cc(C(F)(F)F)c3)ccc2[N+](=O)[O-])CC1 [Compound 106, 3-(4-Acetyl-piperazin-1-yl)-N-(3,5-bis-trifluoromethyl-phenyl)-4-nitro-benzenesulfonamide] — 1.9-fold lower, 241 ± 158 µM
- O=[N+]([O-])c1ccc(S(=O)(=O)Nc2cc(C(F)(F)F)cc(C(F)(F)F)c2)cc1 [Compound 98, N-(3,5-Bis-trifluoromethyl-phenyl)-4-nitro-benzenesulfonamide] — 2.3-fold lower, 207 µM
- O=[N+]([O-])c1cccc(S(=O)(=O)Nc2ccc(C(F)(F)F)cc2)c1 [Compound 20, 3-Nitro-N-(4-trifluoromethylphenyl)benzenesulfonamide] — within error, 482 ± 26 µM
- O=S(=O)(Nc1ccc(Cl)cc1)c1ccc(Cl)s1 [Compound 10, 5-Chlorothiophene-2-sulfonic acid (4-chlorophenyl)amide] — within 1.5-fold, 320 µM
- O=S(=O)(Nc1cccc(C(F)(F)F)c1)c1cc(Br)c(Br)s1 [Compound 27, 4,5-Dibromothiophene-2-sulfonic acid (3-trifluoromethylphenyl)amide] — 2.3-fold lower, 199 ± 28 µM
- O=S(=O)(Nc1cc(Cl)cc(Cl)c1)c1cc(Br)c(Br)s1 [Compound 112, 4,5-Dibromo-thiophene-2-sulfonic acid (3,5-dichloro-phenyl)-amide] — 2.4-fold lower, 194 µM
- O=S(=O)(Nc1ccc(Cl)cc1Cl)c1ccc(S(=O)(=O)c2ccccc2)s1 [Compound 118, 5-Benzenesulfonyl-thiophene-2-sulfonic acid (2,4-dichloro-phenyl)-amide] — 1.5-fold lower, 305 µM
- Cc1sc(S(=O)(=O)Nc2ccc(Cl)cc2)cc1S(=O)(=O)Nc1ccc(Cl)cc1 [Compound 74, 5-Methyl-thiophene-2,4-disulfonic acid bis-[(4-chloro-phenyl)-amide]] — 3.8-fold lower, 123 ± 15 µM
- O=S(=O)(NCc1ccc(Cl)cc1)c1cc(Cl)c(O)c(Cl)c1 [Compound 109, 3,5-Dichloro-N-(4-chloro-benzyl)-4-hydroxy-benzenesulfonamide] — within 1.5-fold, 375 ± 41 µM
- O=S(=O)(Nc1ccc(C(F)(F)F)cc1)c1ccc(S(=O)(=O)c2ccccc2)s1 [Compound 23, 5-Benzenesulfonylthiophene-2-sulfonic acid (4-trifluoromethylphenyl)-amide] — 3.2-fold lower, 146 ± 5 µM
- O=[N+]([O-])c1cccc(S(=O)(=O)Nc2cc(C(F)(F)F)cc(C(F)(F)F)c2)c1 [Compound 21, N-(3,5-Bis-trifluoromethylphenyl)-3-nitrobenzenesulfonamide] — 2.2-fold lower, 209 ± 38 µM
- O=S(=O)(Nc1ccc(C(F)(F)F)cc1)c1ccc(Br)s1 [Compound 116, 5-Bromo-thiophene-2-sulfonic acid (4-trifluoromethyl-phenyl)-amide] — 3.1-fold lower, 152 µM
- O=S(=O)(Nc1ccc(Cl)cc1)c1ccc(S(=O)(=O)c2ccccc2)s1 [Compound 24, 5-Benzenesulfonylthiophene-2-sulfonic acid (4-chlorophenyl)amide] — 1.9-fold lower, 243 ± 59 µM
- O=S(=O)(Nc1ccc(C(F)(F)F)cc1)c1ccc2nsnc2c1 [Compound 123, Benzo[1,2,5]thiadiazole-5-sulfonic acid (4-trifluoromethyl-phenyl)-amide] — within 1.5-fold, 329 ± 42 µM
- O=S(=O)(Nc1ccc(F)cc1)c1cc(S(=O)(=O)Nc2ccc(F)cc2)c(Cl)s1 [Compound 32, 5-Chlorothiophene-2,4-disulfonic acid bis-[(4-fluorophenyl)-amide]] — within error, 408 ± 31 µM
- O=S(=O)(Nc1ccc(Cl)c(Cl)c1)c1cc(Br)c(Br)s1 [Compound 28, 4,5-Dibromothiophene-2-sulfonic acid (3,4-dichlorophenyl)amide] — 2.9-fold lower, 160 ± 31 µM
- O=S(=O)(Nc1cc(Cl)cc(Cl)c1)c1cc(Cl)c(O)c(Cl)c1 [Compound 101, 3,5-Dichloro-N-(3,5-dichloro-phenyl)-4-hydroxy-benzenesulfonamide] — 1.6-fold lower, 299 ± 31 µM
- Cc1ccc(S(=O)(=O)Nc2ccc(Cl)cc2)cc1[N+](=O)[O-] [Compound 37, N-(4-Chlorophenyl)-4-methyl-3-nitrobenzenesulfonamide] — 1.6-fold lower, 294 ± 52 µM
- O=S(=O)(Nc1ccc(Cl)cc1)c1cc(S(=O)(=O)Nc2ccc(Cl)cc2)c(Cl)s1 [Compound 70, 5-Chloro-thiophene-2,4-disulfonic acid bis-[(4-chloro-phenyl)-amide]] — 3.5-fold lower, 135 ± 19 µM
- O=[N+]([O-])c1cccc(S(=O)(=O)Nc2ccc(Cl)cc2)c1 [Compound 19, N-(4-Chlorophenyl)-3-nitrobenzenesulfonamide] — 1.6-fold lower, 295 ± 45 µM
- O=[N+]([O-])c1cc(S(=O)(=O)Nc2ccccc2)sc1Cl [Compound 62, 5-Chloro-4-nitro-thiophene-2-sulfonic acid phenylamide] — 7-fold lower, 67 ± 1 µM
- O=S(=O)(Nc1cc(C(F)(F)F)cc(C(F)(F)F)c1)c1cc2ccccc2s1 [Compound 120, Benzo[b]thiophene-2-sulfonic acid (3,5-bis-trifluoromethyl-phenyl)-amide] — 2.4-fold lower, 193 ± 12 µM
- O=S(=O)(Nc1cc(C(F)(F)F)cc(C(F)(F)F)c1)c1ccc2c(c1)OCCO2 [Compound 86, 2,3-Dihydro-benzo[1,4]dioxine-6-sulfonic acid (3,5-bis-trifluoromethyl-phenyl)-amide] — within 1.5-fold, 375 ± 39 µM
- Cc1ccc(S(=O)(=O)Nc2ccc(C(F)(F)F)cc2)cc1N [Compound 36, 3-Amino-4-methyl-N-(4-trifluoromethyl-phenyl)benzenesulfonamide] — within 1.5-fold, 429 µM
- O=[N+]([O-])c1ccccc1S(=O)(=O)Nc1cc(C(F)(F)F)cc(C(F)(F)F)c1 [Compound 107, N-(3,5-Bis-trifluoromethyl-phenyl)-2-nitro-benzenesulfonamide] — within error, 401 ± 46 µM
- O=[N+]([O-])c1cc(S(=O)(=O)Nc2ccc(Cl)cc2)sc1N1CCCC(O)C1 (stereo not drawn) [Compound 130, 5-(3-Hydroxy-piperidin-1-yl)-4-nitro-thiophene-2-sulfonic acid (4-chloro-phenyl)-amide] — 7.3-fold lower, 64 ± 1 µM
